Test results as given in patent US10227347B2, “Purinyl-N-hydroxyl pyrimidine formamide derivative, preparation methods and uses thereof” (Guizhou Bailing Group Pharmaceutical CO., LTD., priority 2015, dated 2019).

Tests used:
[1] = test system: OCI-LY1 cells (B-cell lymphoma); test: Proliferation inhibition, OCI-LY1 (cck-8); type: cell-based; conditions: Homo sapiens, 96 h incubation
Description: (§1) Calculating the value of IC50 as per the formula: Y=background data+(top data−background data)/(1+10^((Log IC50−X)*rate of curve)). Where, Y refers to the inhibition ratio (%) and X refers to the compound concentration.

[2] = test system: Ramos cells (B-cell lymphoma); test: Proliferation inhibition, Ramos (cck-8); type: cell-based; conditions: Homo sapiens, 96 h incubation
Description: as §1

HDAC4 = target: T1, HDAC4 (Homo sapiens, UniProt P56524); test: HDAC4 enzyme inhibition (Lys-Ac-AMC); type: biochemical; conditions: Table 4, graded
T1 construct: purchased BPS Bioscience 50004
T1 sequence (P56524 627-1084 limits assumed): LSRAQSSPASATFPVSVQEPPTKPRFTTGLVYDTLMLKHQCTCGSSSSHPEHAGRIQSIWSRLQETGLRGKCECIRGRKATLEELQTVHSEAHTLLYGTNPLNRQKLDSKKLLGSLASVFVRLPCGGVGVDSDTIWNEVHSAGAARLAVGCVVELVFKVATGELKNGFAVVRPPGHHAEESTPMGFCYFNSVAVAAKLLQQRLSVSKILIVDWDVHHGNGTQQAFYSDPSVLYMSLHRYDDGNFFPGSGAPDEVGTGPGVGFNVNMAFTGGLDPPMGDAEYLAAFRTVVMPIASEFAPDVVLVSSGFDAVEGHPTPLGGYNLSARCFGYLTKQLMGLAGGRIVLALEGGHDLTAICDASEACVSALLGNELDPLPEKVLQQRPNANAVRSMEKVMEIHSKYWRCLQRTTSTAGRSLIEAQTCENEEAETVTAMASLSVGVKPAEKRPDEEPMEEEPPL
Protocol: (§2) Determining the inhibition capability of HDAC through the substrate method of fluorophore coupled acetylized peptide fragment (Lys-Ac-AMC). HDAC2-11 proteins of subtypes are purchased from BPS Bioscience Company with the Art. […] The reaction buffer system is a modified Tris buffer (pH7.0). The small molecule compounds are prepared and dissolved with 100% DMSO. […] Adding the compound into the reaction wells of the 384 well plate at the designed concentration, then adding 15 μL HDAC enzyme solution into the reaction wells (adding 15 μL blank buffer into the control well 0) for incubation under ambient temperature for 15 min; then adding 10 μL substrate solution to start reaction.
(§3) Analyzing the result data with the software GraphPad Prism and calculating the value of IC50 as per the formula: Y=background data+(top data−background data)/(1+10^((Log IC50−X)*rate of curve)). Where, Y refers to the inhibition ratio (%) and X refers to the compound concentration.

HDAC7 = target: T2, HDAC7 (Homo sapiens, UniProt Q8WUI4); test: HDAC7 enzyme inhibition (Lys-Ac-AMC); type: biochemical; conditions: Table 4, graded
T2 construct: purchased BPS Bioscience 50007
T2 sequence (Q8WUI4 518-952 limits assumed): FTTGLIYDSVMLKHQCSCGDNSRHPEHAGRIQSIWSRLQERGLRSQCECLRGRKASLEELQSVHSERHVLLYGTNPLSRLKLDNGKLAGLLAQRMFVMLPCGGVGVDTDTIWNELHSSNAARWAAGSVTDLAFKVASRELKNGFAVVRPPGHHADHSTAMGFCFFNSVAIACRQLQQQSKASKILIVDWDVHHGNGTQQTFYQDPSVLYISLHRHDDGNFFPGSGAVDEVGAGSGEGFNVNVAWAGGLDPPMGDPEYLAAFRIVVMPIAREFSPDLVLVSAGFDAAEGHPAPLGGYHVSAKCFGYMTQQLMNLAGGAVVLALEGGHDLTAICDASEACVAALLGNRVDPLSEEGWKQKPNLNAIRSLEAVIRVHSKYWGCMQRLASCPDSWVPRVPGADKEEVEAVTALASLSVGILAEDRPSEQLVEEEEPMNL
Protocol: as §2, §3

HDAC8 = target: T3, HDAC8 (Homo sapiens, UniProt Q9BY41); test: HDAC8 enzyme inhibition (Lys-Ac-AMC); type: biochemical; conditions: Table 4, graded
T3 construct: purchased BPS Bioscience 50008
T3 sequence (Q9BY41 1-377): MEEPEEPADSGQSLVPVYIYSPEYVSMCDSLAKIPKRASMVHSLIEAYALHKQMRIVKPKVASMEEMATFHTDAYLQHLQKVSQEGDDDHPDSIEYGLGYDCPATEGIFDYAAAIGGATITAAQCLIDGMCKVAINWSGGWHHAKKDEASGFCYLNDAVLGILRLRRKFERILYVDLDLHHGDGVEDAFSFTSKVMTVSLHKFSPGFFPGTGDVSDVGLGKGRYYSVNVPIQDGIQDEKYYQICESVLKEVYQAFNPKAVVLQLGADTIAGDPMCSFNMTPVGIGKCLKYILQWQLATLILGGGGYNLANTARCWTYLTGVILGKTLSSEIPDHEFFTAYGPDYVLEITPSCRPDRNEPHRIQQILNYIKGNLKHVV
Protocol: as §2, §3

HDAC9 = target: T4, HDAC9 (Homo sapiens, UniProt Q9UKV0); test: HDAC9 enzyme inhibition (Lys-Ac-AMC); type: biochemical; conditions: Table 4, graded
T4 construct: purchased BPS Bioscience 50009
T4 sequence (Q9UKV0 1-1066 isoform Q9UKV0-5): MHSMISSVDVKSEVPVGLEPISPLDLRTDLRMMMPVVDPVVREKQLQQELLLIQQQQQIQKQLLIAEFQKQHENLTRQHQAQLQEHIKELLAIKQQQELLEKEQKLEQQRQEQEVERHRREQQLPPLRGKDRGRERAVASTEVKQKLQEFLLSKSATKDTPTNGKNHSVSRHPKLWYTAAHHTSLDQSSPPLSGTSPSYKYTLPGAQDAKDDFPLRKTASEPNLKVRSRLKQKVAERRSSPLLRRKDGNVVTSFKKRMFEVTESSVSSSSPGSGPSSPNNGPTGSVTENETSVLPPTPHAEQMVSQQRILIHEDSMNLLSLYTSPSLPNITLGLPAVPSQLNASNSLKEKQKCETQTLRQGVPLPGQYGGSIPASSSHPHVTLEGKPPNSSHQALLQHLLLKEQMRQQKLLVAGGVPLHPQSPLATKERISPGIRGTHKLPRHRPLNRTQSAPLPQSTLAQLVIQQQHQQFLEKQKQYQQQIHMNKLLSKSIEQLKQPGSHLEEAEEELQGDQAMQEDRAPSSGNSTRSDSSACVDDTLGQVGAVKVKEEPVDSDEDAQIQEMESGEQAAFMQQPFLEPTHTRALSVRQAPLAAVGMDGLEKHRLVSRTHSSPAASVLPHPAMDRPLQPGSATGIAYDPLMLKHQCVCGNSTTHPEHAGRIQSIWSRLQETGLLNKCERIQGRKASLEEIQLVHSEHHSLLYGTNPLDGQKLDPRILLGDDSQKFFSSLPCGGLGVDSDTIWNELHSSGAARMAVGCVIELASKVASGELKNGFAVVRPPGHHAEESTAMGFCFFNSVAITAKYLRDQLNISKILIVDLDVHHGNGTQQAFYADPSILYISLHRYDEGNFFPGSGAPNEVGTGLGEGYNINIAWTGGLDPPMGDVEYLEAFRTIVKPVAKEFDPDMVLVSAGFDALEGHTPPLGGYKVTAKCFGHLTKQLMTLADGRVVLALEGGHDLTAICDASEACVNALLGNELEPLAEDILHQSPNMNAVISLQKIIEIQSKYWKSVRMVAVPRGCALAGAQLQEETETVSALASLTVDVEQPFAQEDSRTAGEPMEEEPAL
Protocol: as §2, §3

HDAC10 = target: T5, HDAC10 (Homo sapiens, UniProt Q969S8); test: HDAC10 enzyme inhibition (Lys-Ac-AMC); type: biochemical; conditions: Table 4, graded
T5 construct: purchased BPS Bioscience 50060
T5 sequence (Q969S8 1-669): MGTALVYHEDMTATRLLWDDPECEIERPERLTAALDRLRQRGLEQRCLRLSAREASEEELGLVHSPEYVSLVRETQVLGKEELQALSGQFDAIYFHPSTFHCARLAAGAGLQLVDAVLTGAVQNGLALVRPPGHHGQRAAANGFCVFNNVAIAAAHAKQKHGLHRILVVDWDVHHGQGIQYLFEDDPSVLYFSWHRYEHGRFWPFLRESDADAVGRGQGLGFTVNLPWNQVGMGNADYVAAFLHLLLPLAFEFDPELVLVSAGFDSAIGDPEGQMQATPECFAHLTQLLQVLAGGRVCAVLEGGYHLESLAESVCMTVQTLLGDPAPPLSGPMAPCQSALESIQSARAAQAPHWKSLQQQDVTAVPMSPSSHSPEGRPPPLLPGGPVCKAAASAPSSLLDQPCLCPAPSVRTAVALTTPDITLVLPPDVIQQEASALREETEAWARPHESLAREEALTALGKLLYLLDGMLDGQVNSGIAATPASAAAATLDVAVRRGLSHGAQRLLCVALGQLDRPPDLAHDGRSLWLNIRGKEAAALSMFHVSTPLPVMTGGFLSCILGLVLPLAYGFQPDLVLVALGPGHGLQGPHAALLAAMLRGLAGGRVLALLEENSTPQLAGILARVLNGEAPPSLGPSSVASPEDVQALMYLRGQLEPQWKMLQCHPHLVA
Protocol: as §2, §3

[3] = test system: MV4-11 subcutaneous tumor; conditions: 10 mg/kg i.v., once per two days, 22 days
Description: During drug administration, measuring the weight and gross tumor volume of the mice per 2 days and keeping a record. The calculation formula is as V=π/6×A^2×B, where, where, V=gross tumor volume (mm^3), A=tumor width (mm) and B=tumor length (mm). Observing and keeping a record for the survival condition of the tested animals. After drug discontinuance, killing the mice through cervical dislocation and peeling off their tumors as per the operation specification of animal experiment. Evaluating the inhibition capability of the compounds to tumor activities by calculating the tumor inhibitory rate with the formula as: tumor inhibitory rate=(1−tumor weight of treatment group/tumor weight of control group)×100%. Analyzing and comparing the difference between each treatment group and control group with the method of t-test. The grading of significance level of difference is: ***, P<0.001; **, P<0.01; *, P<0.05; no statistical significance (ns), P>0.05.

Compound	IC50 [1] [nM]	IC50 [2] [nM]	IC50 (HDAC4) [nM]	IC50 (HDAC7) [nM]	IC50 (HDAC8) [nM]	IC50 (HDAC9) [nM]	IC50 (HDAC10) [nM]	Final survival condition (survived individuals/total individuals) [3]	Tumor inhibitory rate (%) [3] [%]
Cc1[nH]c2ccccc2c1CCNCc1ccc(/C=C/C(=O)NO)cc1 [LBH589, panobinostat, reference compound]	10 to 100	0.1 to 1							
COc1ccc(-c2nc(N3CCOCC3)c3nc(CN(C)c4ncc(C(=O)NO)cn4)n(C)c3n2)cn1 [CLJ-1, 2-(((2-(6-methoxypyridine-3-yl)-9-methyl-6-morpholine-9H-purine-8-yl))methyl(methyl)amino)-N-hydroxyl pyrimidine-5-formamide]	10 to 100	0.1 to 1	1000 to 10000	1000 to 10000	100 to 1000	1000 to 10000	1 to 100	5/6	
CN(Cc1nc2c(N3CCOCC3)nc(-c3cnc(N)nc3)nc2n1C)c1ncc(C(=O)NO)cn1 [CLJ-11, 2-(((2-(2-aminopyrimidine-5-yl)-9-methyl-6-morpholine-9H-purine-8-yl))methyl(methyl)amino)-N-hydroxyl pyrimidine-5-formamide]	100 to 1000	10 to 100	100 to 1000	100 to 1000	1 to 100	1000 to 10000	1 to 100	4/6	45.1
CN(Cc1nc2c(N3CCOCC3)nc(-c3ccc(N)cc3)nc2n1C)c1ncc(C(=O)NO)cn1 [CLJ-44]	10 to 100	1 to 10	1000 to 10000	1000 to 10000	1 to 100	1000 to 10000	1 to 100	6/6	
COc1ccc(-c2nc(N3CCOCC3)c3nc(CN(C)c4ncc(C(=O)NO)cn4)n(C)c3n2)cc1 [CLJ-29, 2-(((2-(4-methoxyphenyl)-9-methyl-6-morpholine-9H-purine-8-yl))methyl(methyl)amino)-N-hydroxyl pyrimidine-5-formamide]	1 to 10	1 to 10	1000 to 10000	1000 to 10000	1 to 100	1000 to 10000	1 to 100	4/6	
